Here are results for 35 molecules from ChEMBL document CHEMBL3301464, “MMV Malaria Box anti-babesial screening”.

The structures appear in SMILES notation.

Assay [1] can be described thus: (§1) MMV: Anti-babesial activity assay. Parasite pRBCs at 1% parasitemia were cultivated in 100 ul with 96-well plates at 2.5% and 5% hematocrits. The parasites were cultivated in triplicate for 4 days without replacement of the medium for each concentration of the compound. Type of assay: functional, Babesia caballi.
Assay [2] is described as follows: as §1. Type of assay: functional, Babesia bovis.
Assay [3] can be described thus: as §1. The class given is functional, Babesia equi.
Assay [4] in a line: as §1. The class given is functional, Babesia bigemina.

For the molecule `O=C(Nc1cccc(C(F)(F)F)c1)c1cc(Cl)ccc1O`, the IC50 worked out at 5.21 µM in assay [1], 0.82 µM in assay [2], 5.1 µM in assay [3] and 3.71 µM in assay [4].
For `COc1cccc(C(=O)Nc2ccc(-c3nc4ccccc4[nH]3)cc2)c1`, in that order: 4.89 µM, 1 µM, 7.38 µM and 4.77 µM.
Take `O=c1nc(C=Cc2ccc(Br)cc2)oc2ccccc12`: the IC50 came to 13.6 µM in assay [1], 15.3 µM in assay [2], 14.3 µM in assay [3] and 10 µM in assay [4].
For `O=C(Nc1ccc(-c2nc3ccccc3[nH]2)cc1)c1ccc(Cl)c(Cl)c1`, in that order: 3.86 µM, 18.5 µM, 6.24 µM and 4.13 µM.
For `CCOc1ccc2c(c1)CN(Cc1ccc(Cl)cc1)CO2`, the IC50 in assay [1] is 10.7 µM; in assay [2] it was 0.26 µM; in assay [3], 7.54 µM; in assay [4], 13.3 µM.
For `CCOC(=O)c1cnc2ccc(CC)cc2c1O`, in that order: 13.5 µM, above 25 µM, 14.9 µM and 17.5 µM.
Consider `O=C(Nc1ccc(Cl)cc1)N1CCN(c2ccc3nncn3n2)CC1`, for which the half-inhibitory concentration (IC50) is 16.3 µM in assay [1], 16.3 µM in assay [2], 1.02 µM in assay [3] and 1 µM in assay [4].
For the molecule `Nc1ccc(-c2nc3cc(Oc4ccc(Oc5ccc6[nH]c(-c7ccc(N)cc7)nc6c5)cc4)ccc3[nH]2)cc1`, the half-inhibitory concentration (IC50) in assay [1] worked out at 4.52 µM; in assay [2], 10 µM; in assay [3] it was 3.86 µM; in assay [4], 18.9 µM.
Take `CCOc1cc(Cl)c(C(C)NC(=O)c2ccccc2)cc1OCC` (stereo not given): the concentration for half-maximal inhibition (IC50) in assay [1] is 12.4 µM; in assay [2] it was above 25 µM; in assay [3], 10 µM; in assay [4], 4.19 µM.
For `COc1cc(C(=O)Nc2nc3c(cc4c5c(cccc53)CC4)s2)cc(OC)c1OC`, in that order: 5 µM, 3.08 µM, 4.41 µM and 8.04 µM.
As for `Oc1ccc(Cl)cc1CNc1nc2ccccc2[nH]1`, the half-maximal inhibitory concentration (IC50) in assay [1] came to 8.03 µM; in assay [2], 5.38 µM; in assay [3], 4.77 µM; in assay [4], 5.06 µM.
For `CCCCCn1c(=N)n(CC(O)COc2cccc(C)c2)c2ccccc21` (stereo not given), the IC50 in assay [1] was determined as 5.9 µM; in assay [2], 0.08 µM; in assay [3], 4.52 µM; in assay [4], 0.1 µM.
For `Cc1ccccc1OCCSc1nc2ccc(NC(=O)c3cccs3)cc2s1`, in that order: 5.51 µM, 7.81 µM, 22.3 µM and 5.09 µM.
For `Cc1ccc2nc(C)cc(Nc3cccc(C(F)(F)F)c3)c2c1`, in that order: 6.72 µM, 6.31 µM, 5.5 µM and 17.5 µM.
Take `CCOc1ccc(/C=C/c2nc(=O)c3ccccc3o2)cc1`: the IC50 amounted to 19.4 µM in assay [1], 1 µM in assay [2], 12.5 µM in assay [3] and 3.03 µM in assay [4].
For `N=c1n(CCN2CCCCC2)c2ccccc2n1CC(O)c1cccc(Br)c1` (stereo not given), in that order: 4.93 µM, 3.81 µM, 1.58 µM and 1 µM.
For `CCOc1ccc(-c2nonc2NC(=O)c2cccc(C)c2)cc1OCC`, in that order: 17.5 µM, 19.9 µM, 18.5 µM and 13.1 µM.
For `COc1cc(-c2nc(-c3ccc(Sc4ccccc4)cc3)c(-c3ccccc3)[nH]2)cc(OC)c1O`, in that order: 3.45 µM, 7.54 µM, 12 µM and 16.5 µM.
Regarding `COc1ccc(-c2nc(N3CCN(C(=O)C4CCCCC4)CC3)c3c4c(sc3n2)CCCC4)cc1`, the IC50 in assay [1] is 11.9 µM; in assay [2], 1.07 µM; in assay [3] it was 8.36 µM; in assay [4], 1 µM.
For `CCOc1cc(CNC(C)C(O)c2ccccc2)cc(Cl)c1OCC` (stereo not given), in that order: 7.96 µM, 0.081 µM, 5.64 µM and 0.91 µM.
For `CC(C)CNC(=O)c1c(N)n(CCc2ccccc2F)c2nc3ccccc3nc12`, in that order: 1 µM, 10 µM, 13.3 µM and 7.67 µM.
For `COc1ccc2nc(C)cc(Nc3ccc(Cl)cc3)c2c1`, in that order: above 25 µM, 2.4 µM, 4.29 µM and 8.15 µM.
For `COc1ccc(-c2cc3c(nn2)-c2ccccc2C3=O)cc1`, the IC50 in assay [1] was found to be 14.8 µM; in assay [2] it was 0.34 µM; in assay [3] it was 9.18 µM; in assay [4], 10 µM.
For `Oc1ccc(C(=C(Cl)Cl)c2ccc(O)cc2)cc1`, the IC50 is 21.1 µM in assay [1], 15.9 µM in assay [2], 13.8 µM in assay [3] and above 25 µM in assay [4].
For the molecule `Cc1cc(N(C)C)nc(Nc2ccc(NC(=O)Nc3ccccc3)cc2)n1`, the half-inhibitory concentration (IC50) in assay [1] was 14.6 µM; in assay [2] it was 0.078 µM; in assay [3], 12.1 µM; in assay [4], 0.06 µM.
Take `CCOC(=O)c1cnc2c(C)cccc2c1Nc1ccc(C(C)=O)cc1`: the concentration for half-maximal inhibition (IC50) in assay [1] was 6.08 µM; in assay [2], 19.6 µM; in assay [3], 12.6 µM; in assay [4], above 25 µM.
For `CCC1(C)CC(CCNCc2ccccc2O)(c2ccc(C)cc2)CCO1` (stereo not given), in that order: 7.3 µM, 14.1 µM, 0.61 µM and 16.8 µM.
As for `CC(C)CCNCC(O)Cn1c2ccccc2c2ccccc21` (stereo not given), the IC50 amounted to 0.38 µM in assay [1], 0.081 µM in assay [2], 0.84 µM in assay [3] and 0.76 µM in assay [4].
As for `Cc1cc(C)cc(Nc2cc(C)nc3nc(C(F)(F)F)nn23)c1`, the half-inhibitory concentration (IC50) in assay [1] was 12.4 µM; in assay [2] it was 20.6 µM; in assay [3], 21.9 µM; in assay [4] it was 13.6 µM.
For `Oc1ccccc1CNCC12CC3CC(CC(C3)C1)C2`, in that order: 10 µM, 14.7 µM, 13.1 µM and 15.9 µM.
For `CCOc1ccc(Nc2c3ccccc3nc3ccccc23)cc1`, in that order: 7.54 µM, 0.72 µM, 4.52 µM and 0.1 µM.
For `CCc1ccc(CNCC(O)c2ccccc2)cc1` (stereo not given), in that order: 4.13 µM, 11.1 µM, 15.2 µM and 7.65 µM.
As for `CCc1c(C)c(=N)c2ccccc2n1C`, the half-maximal inhibitory concentration (IC50) amounted to 0.26 µM in assay [1], 18.4 µM in assay [2], 7.23 µM in assay [3] and 3.42 µM in assay [4].
For `CCCCc1c(CCC)c(=N)c2ccccc2n1C`, in that order: 1 µM, 0.087 µM, 15.2 µM and 0.059 µM.
For `Oc1ccc(Br)cc1CN1CCN(Cc2cccc(F)c2)CC1`, in that order: 14.3 µM, 17.3 µM, 13 µM and above 25 µM.

The term IC50 denotes the point on the concentration scale where inhibition reaches its midpoint. A low value points to greater potency.
